Drawing on ChEMBL document CHEMBL1128000, “Synthesis and antiviral activity of a novel class of HIV-1 protease inhibitors containing a heterocyclic P1-P2 amide bond isostere” (Bioorg Med Chem Lett, 1994), this text covers Ki and IC50 for 24 compounds.

Molecules are shown by their SMILES.

Assay [1] has as its target Human immunodeficiency virus type 1 protease (Human immunodeficiency virus 1, UniProt Q72874). Kind of assay: Inhibitory activity against HIV-1 protease. Particulars: read-out: Ki app.
Assay [2] deals with MOLT-4. Description: Compound was tested for in vitro inhibitory activity against HIV replication in MOLT-4 cells. It is filed as functional, cell-based. Conditions: Homo sapiens.

The IC50 is the point on the concentration scale where inhibition reaches its midpoint. Low values mean greater potency in that assay, high ones weaker potency in that assay. Regarding `CC(C)c1c[nH]c([C@H](Cc2ccccc2)C[C@H](O)[C@H](Cc2ccccc2)NC(=O)[C@@H](NC(=O)OCc2ccccc2)[C@H](C)O)n1`, in assay [1], the Ki came out at 1.4 nM. In assay [2], it took 11 nM to reach half-maximal inhibition (IC50).
With `CNC(=O)c1c[nH]c([C@H](Cc2ccccc2)C[C@H](O)[C@H](Cc2ccccc2)NC(=O)OC(C)(C)C)n1`, in assay [1], the Ki was 3700 nM.
Take `CC(=O)N[C@@H](C(=O)N[C@@H](Cc1ccccc1)[C@@H](O)C[C@@H](Cc1ccccc1)c1nc(C(C)C)c[nH]1)C(C)C`: the Ki in assay [1] worked out at 150 nM.
The same measure, in the same setting: for `CC(C)(C)OC(=O)N[C@@H](Cc1ccccc1)[C@@H](O)C[C@@H](Cc1ccccc1)c1nccs1` the value was 3000 nM.
On the same count and under the same terms, for `CC(C)(C)OC(=O)N[C@@H](Cc1ccccc1)[C@@H](O)C[C@@H](Cc1ccccc1)c1nc(C(=O)C2CCCC2)c[nH]1` the value was 150 nM; for `CCC(O)c1cnc([C@H](Cc2ccccc2)C[C@H](O)[C@H](Cc2ccccc2)NC(=O)OC(C)(C)C)s1` (some centres not stated), 720 nM.
On to `CC(C)c1cnc([C@H](Cc2ccccc2)C[C@H](O)[C@H](Cc2ccccc2)NC(=O)[C@@H](NC(=O)OCc2ccccc2)C(C)C)[nH]1`, for which the Ki in assay [1] came out at 0.6 nM. The same compound displayed an IC50 in assay [2] of 100 nM.
Turning to `CC(=O)N[C@H](C(=O)N[C@@H](Cc1ccccc1)[C@@H](O)C[C@@H](Cc1ccccc1)c1ncc(C(C)C)[nH]1)C(C)C`, the Ki in assay [1] is 1 nM. This compound displayed an IC50 in assay [2] of 40 nM.
Consider `CC(C)OC(=O)N[C@H](C(=O)N[C@@H](Cc1ccccc1)[C@@H](O)C[C@@H](Cc1ccccc1)c1ncc(C(C)C)[nH]1)C(C)C`, for which the Ki in assay [1] was found to be 7.9 nM. Further, the midpoint of inhibition in assay [2], the IC50, lay at 134 nM.
On to `CC(C)c1cnc([C@H](Cc2ccccc2)C[C@H](O)[C@H](Cc2ccccc2)NC(=O)[C@@H](NC(=O)OC(C)(C)C)C(C)C)[nH]1`, for which the Ki in assay [1] came out at 300 nM.
Take `CC(C)(C)OC(=O)N[C@@H](Cc1ccccc1)[C@@H](O)C[C@@H](Cc1ccccc1)c1ncc(C(=O)c2ccccc2)[nH]1`: in assay [1], the Ki amounted to 7800 nM.
Consider `CCOC(=O)N[C@H](C(=O)N[C@@H](Cc1ccccc1)[C@@H](O)C[C@@H](Cc1ccccc1)c1nc(C(C)C)c[nH]1)C(C)C`, for which the Ki in assay [1] was found to be 2.8 nM. The IC50 in assay [2] came to 77 nM.
`CCCCc1cnc([C@H](Cc2ccccc2)C[C@H](O)[C@H](Cc2ccccc2)NC(=O)OC(C)(C)C)s1`: the Ki in assay [1] was 26000 nM.
As for `CC(C)(C)OC(=O)N[C@@H](Cc1ccccc1)[C@@H](O)C[C@@H](Cc1ccccc1)c1nc[nH]n1`, the Ki in assay [1] stood at 5800 nM.
For the compound `COC(=O)N[C@H](C(=O)N[C@@H](Cc1ccccc1)[C@@H](O)C[C@@H](Cc1ccccc1)c1nc(C(C)C)c[nH]1)C(C)C`, the Ki in assay [1] is 2.1 nM. Also, the IC50 in assay [2] was 50 nM.
Consider `COC(=O)c1cnc([C@H](Cc2ccccc2)C[C@H](O)[C@H](Cc2ccccc2)NC(=O)OC(C)(C)C)[nH]1`, for which the Ki in assay [1] came to 1800 nM.
With `CCC(C)C(=O)c1c[nH]c([C@H](Cc2ccccc2)C[C@H](O)[C@H](Cc2ccccc2)NC(=O)OC(C)(C)C)n1` (some centres not stated), the Ki in assay [1] was found to be 53 nM. The same compound displayed an IC50 in assay [2] of 950 nM.
`CC(C)c1c[nH]c([C@H](Cc2ccccc2)C[C@H](O)[C@H](Cc2ccccc2)NC(=O)[C@@H](NC=O)C(C)C)n1`: in assay [1], the Ki came to 4.6 nM.
Regarding `CCC(=O)c1cnc([C@H](Cc2ccccc2)C[C@H](O)[C@H](Cc2ccccc2)NC(=O)OC(C)(C)C)s1`, the Ki in assay [1] is 3700 nM.
The same measure, in the same setting: as for `CCc1cnc([C@H](Cc2ccccc2)C[C@H](O)[C@H](Cc2ccccc2)NC(=O)OC(C)(C)C)s1`, the figure is 2000 nM.
Consider `CCC(CC)C(=O)c1cnc([C@H](Cc2ccccc2)C[C@H](O)[C@H](Cc2ccccc2)NC(=O)OC(C)(C)C)[nH]1`, for which the Ki in assay [1] was determined as 46 nM. For the same compound, the IC50 in assay [2] is 850 nM.
Regarding `CCCc1cnc([C@H](Cc2ccccc2)C[C@H](O)[C@H](Cc2ccccc2)NC(=O)OC(C)(C)C)s1` (stereo in doubt; form 1), the Ki in assay [1] was 700 nM.
As for `CCCc1cnc([C@H](Cc2ccccc2)C[C@H](O)[C@H](Cc2ccccc2)NC(=O)OC(C)(C)C)s1` (stereo in doubt; form 2), in assay [1], the Ki was 410 nM.
For `CCCc1cnc([C@H](Cc2ccccc2)C[C@H](O)[C@H](Cc2ccccc2)NC(=O)OC(C)(C)C)s1` (stereo in doubt; form 3), the Ki in assay [1] came to 4600 nM.
